# Test results from PMC8757452 (ACS Omega, 2021).
# Experiments:
# [1] = tested on: T. cruzi epimastigotes; settings: ref [14], cited from earlier work
# [2] = tested on: T. cruzi epimastigotes; assay: T. cruzi epimastigotes growth inhibition, [3H] thymidine uptake assay; type: cell-based, Trypanosoma cruzi; settings: for IC50: 72 h, read-out: IC50 (μg/mL) ± SD on T. cruzi epimastigotes; for SI (selectivity index, relation between CC50 and IC50): CC50 splenocytes / IC50 epimastigotes
# [3] = tested on: T. cruzi (K-98 clone); assay: In vivo trypanocidal activity, murine model of Chagas disease; parameters: species or system BALB/c mice; settings: 1 mg/kg/day i.p.
# [4] = tested on: HeLa cells; settings: read-out: IC50, cytotoxicity on HeLa cells, ref [28]; cited from earlier work
structure (smiles),measurement,setting,value
"COC1=C(C(C)C)C(=O)C2=C(C[C@@]34CCCC(C)(C)[C@@H]3C[C@]2(O)O4)C1=O [K, Komaroviquinone]",IC50 of komaroviquinone,[1]; T. cruzi epimastigotes,a Komaroviquinone IC50 = 1.00 μg/mL ref ([14]).
same,log (1/IC50) of komaroviquinone,"[1]; from IC50 = 1.00 μg/mL, IC50 in molar",5.43
O=C(Cn1ccnc1[N+](=O)[O-])NCc1ccccc1 [benznidazole],IC50,[2]; Trypanosoma cruzi,1 ± 0.62 µg/mL
same,area under the parasitemia curve (AUC),[3]; days 11-15 post-infection,4
same,sterile cure,[3]; five days,neither Bz was able to cure
"C=C1C(=O)O[C@@H]2C[C@@H](C)[C@@H]3C=CC(=O)[C@@]3(C)[C@@H](O)[C@H]12 [compound 10, helenalin]","SI (selectivity index, relation between CC50 and IC50)",[2],1.1
same,IC50,[2]; Trypanosoma cruzi,0.29 ± 0.05 µg/mL
same,inhibition at 1.5 µg/mL,"[2]; Trypanosoma cruzi, read-out: inhibition of parasite replication",66%
"C=C1C(=O)O[C@@H]2[C@H]1CC[C@H](C)[C@@]1(O)C=CC(=O)[C@@]21C [compound 14, hymenin]","SI (selectivity index, relation between CC50 and IC50)",[2],0.8
same,IC50,[2]; Trypanosoma cruzi,1.5 ± 0.09 µg/mL
C=C1C[C@H](O)[C@H](Br)C(C)(C)[C@@]12CCC(C)=C(Cl)C2 [elatol],IC50,[4],1300 nM
